This note sets out measurements from PubChem BioAssay AID1963851 (Molecular Pharmacology Branch, DTP, NCI, 2024).

Molecules are shown by their SMILES. Several values for one entry are separate records, joined by “and”; a condition that tells them apart may be missing. Equal values may be shown once.

The test deals with 188146-221-R-J1-PDC complex spheroid viability. The experiment in a line: Anticancer human tumor 188146-221-R-J1-PDC patient-derived colon adenocarcinoma cell line growth inhibition [POLQ]. The conditions noted are these: for viability, T/C: stronger effect = lower value. The method, then: Multicellular complex tumor spheroid response to Polymerase (POL) inhibitors (novobiocin, ART-558, RP6685) in combination with a variety of drugs and investigational agents in selected tumor cell lines
The POL inhibitors (novobiocin, ART-558, and RP6685) were evaluated both individually and in combination with standard of care and investigational anticancer small molecules within a complex spheroid model of solid tumors. . Complex spheroids include a stromal component modeled by human endothelial cells (HUVEC) and fibroblasts modeled by human mesenchymal stem cells (MSCs). The concentration ranges selected for each drug and investigational agent were based upon clinically achievable concentrations if the clinical Cmax of the agent was known.
Compounds. The drugs and investigational agents: novobiocin (NSC847541), ART-558 (NSC835418), RP-6685 (NSC848927), peposertib (NSC802822), ceralasertib (NSC780249), elimusertib (NSC800525), camonsertib (NSC841442), AZD-1390 (NSC803789), olaparib (NSC753686), talazoparib (NSC767125), rucaparib (NSC756644), sotorasib (NSC818433), MRTX-1133 (NSC836407), SN-38 (NSC673596), topotecan (NSC609699), epotoside (NSC141540), doxorubicin (NSC123127), gemcitabine (NSC613327), 5-fluorouracil (NSC19893), paclitaxel (NSC125973), vemurafenib (NSC761431), MSA-2 (NSC828583), SN-011 (NSC837082), adavosertib (NSC754352), prexasertib (NSC758257), carboplatin (NSC241240) and oxaliplatin (NSC266046), were obtained from the National Cancer Institute (NCI) Developmental Therapeutics Program Chemical Repository (21). The FDA-approved anticancer drug set is available from the Developmental Therapeutics Program at https://dtp.cancer.gov/organization/dscb/obtaining/. […] The stock solutions were prepared in dimethyl sulfoxide (DMSO, Sigma-Aldrich, St. Louis, MO, cat. D2650), except for the platinum compounds which were prepared in saline (Quality Biological, Gaithersburg, MD, cat. 114-055-101), at 800-fold the tested concentration and stored at -70 degrees C prior to their use. All drugs and investigational agents were tested over a range starting from a high concentration at or near the clinical Cmax and decreasing in half-log increments. If the clinical Cmax for an agent had not been determined, the highest concentration tested was 10 microM, except for SN-38, which was tested at a high concentration of 1 microM.
Cell Culture. All cells were maintained in an incubator at 37 degrees C and 5% CO2 with 95% humidity. The PDC lines were cultured according to standard operating procedures established by the NCI PDMR (https://pdmr.cancer.gov). Table 3 of the manuscript, lists the cell lines along with the number of the three cell types plated to form the mct-spheroids and media for tumor cell growth. After thawing, all PDC lines, except 997537-175-T-J1-PDC and 415267-285-R-J2-PDC, were cultured in Matrigel-coated flasks prepared with a working solution of 1X Ham's F-12 nutrient mix, without supplementation (Thermo Fisher Scientific, cat. 11765054), 100 U/mL penicillin-streptomycin (Thermo Fisher Scientific, cat. 15140122), and 2.5% Matrigel (Corning Inc., Corning, NY, cat. 354248) for the first three passages. The two PDC lines 997537-175-T-J1-PDC and 415267-285-R-J2-PDC were cultured on uncoated flasks. The 857933-349-R-J2-PDC line was cultured in 6C/Colon 1B media containing advanced DMEM/F-12 (Thermo Fisher Scientific, cat. 12634028), 10 mM HEPES (Thermo Fisher Scientific, cat. 15630080), 1X GlutaMAX supplement (Thermo Fisher Scientific, cat. 35050061), 0.1 mg/mL primocin (InvivoGen, San Diego, CA, cat. ant-pm-2), 10% defined fetal bovine serum, heat inactivated (HyClone Laboratories Inc., Logan, UT, cat. SH30070.03HI), 50% L-WRN conditioned media (ATCC, cat. CRL-3276), 1.25 mM N-Acetyl-L-cysteine (Sigma-Aldrich, cat. A9165), 10 mM nicotinamide (Sigma-Aldrich, cat. N0636), 1X B-27 supplement (Thermo Fisher Scientific, cat. 17504044), 1X N-2 supplement (Thermo Fisher Scientific, cat. […]
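Also: spheroids exposed to compounds for seven days.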

What is called IC50 is the concentration needed to halve the response being measured. Usually viability, T/C stands for the result in the treated group divided by that in the control group, in per cent. `CC(=O)O[C@H]1C(=O)[C@@]2(C)[C@H]([C@H](OC(=O)c3ccccc3)[C@]3(O)C[C@H](OC(=O)[C@H](O)[C@@H](NC(=O)c4ccccc4)c4ccccc4)C(C)=C1C3(C)C)[C@]1(OC(C)=O)CO[C@@H]1C[C@@H]2O` + Nc1ccc(C#CCN(C(=O)Cc2ncc(C(F)(F)F)cc2C(F)(F)F)c2ccc(F)cc2)nn1: the concentration for half-maximal inhibition (IC50) is, setting by setting: (curve of first compound, second compound 0.0316 µM) 13.6 nM; (curve of first compound, second compound 0.1 µM) 12.5 nM; (curve of first compound, second compound 0.316 µM) 14.5 nM; (curve of first compound, second compound 1 µM) 10.4 nM; (curve of first compound, second compound 3.16 µM) 10.5 nM; (curve of first compound, second compound 10 µM) < 9.49 nM. Further, the viability, T/C is 63.4% (second compound 0.0316 µM, first compound 0.00949 µM); 20.8% (second compound 0.0316 µM, first compound 0.03 µM); 12.1% (second compound 0.0316 µM, first compound 0.0949 µM); 12.3% (second compound 0.0316 µM, first compound 0.3 µM); 12.3% (second compound 0.0316 µM, first compound 0.949 µM); 11.4% (second compound 0.0316 µM, first compound 3 µM). Also, the viability, T/C by setting is: (second compound 0.1 µM, first compound 0.00949 µM) 59.2%; (second compound 0.1 µM, first compound 0.03 µM) 22.4%; (second compound 0.1 µM, first compound 0.0949 µM) 12.4%; (second compound 0.1 µM, first compound 0.3 µM) 11.6%; (second compound 0.1 µM, first compound 0.949 µM) 13.2%; (second compound 0.1 µM, first compound 3 µM) 17.6%. Moreover, the viability, T/C is 67.8% (second compound 0.316 µM, first compound 0.00949 µM); 19.9% (second compound 0.316 µM, first compound 0.03 µM); 11.4% (second compound 0.316 µM, first compound 0.0949 µM); 13.2% (second compound 0.316 µM, first compound 0.3 µM); 12.4% (second compound 0.316 µM, first compound 0.949 µM); 12.9% (second compound 0.316 µM, first compound 3 µM). Also, the viability, T/C by setting is: (second compound 1 µM, first compound 0.00949 µM) 53.1%; (second compound 1 µM, first compound 0.03 µM) 16%; (second compound 1 µM, first compound 0.0949 µM) 14%; (second compound 1 µM, first compound 0.3 µM) 10.8%; (second compound 1 µM, first compound 0.949 µM) 12.7%; (second compound 1 µM, first compound 3 µM) 13.6%. The viability, T/C is 53.4% (second compound 3.16 µM, first compound 0.00949 µM); 16.5% (second compound 3.16 µM, first compound 0.03 µM); 14.4% (second compound 3.16 µM, first compound 0.0949 µM); 12.5% (second compound 3.16 µM, first compound 0.3 µM); 12.9% (second compound 3.16 µM, first compound 0.949 µM); 14% (second compound 3.16 µM, first compound 3 µM). For the same molecule, the viability, T/C (second compound 10 µM, first compound 0.00949 µM) is 45.5%; the viability, T/C (second compound 10 µM, first compound 0.03 µM) is 16.9%; the viability, T/C (second compound 10 µM, first compound 0.0949 µM) is 15.8%; the viability, T/C (second compound 10 µM, first compound 0.3 µM) was 13.3%; the viability, T/C (second compound 10 µM, first compound 0.949 µM) was 14.4%; the viability, T/C (second compound 10 µM, first compound 3 µM) was 17.6%.
With `CCc1cc2c(N3CCc4c(cc(Cn5ccnc5)cc4-c4cn(C)nc4C(F)(F)F)C3=O)cc(C)nc2c(OC)n1`, the viability, T/C is 114% and 97.3% and 106% (compound 0.0316 µM); 114% and 95.4% and 108% (compound 0.1 µM); 95.9% and 83.1% and 98.9% (compound 0.316 µM); 85.5% and 80.4% and 92.5% (compound 1 µM); 71% and 77.1% and 66.7% (compound 3.16 µM); 41.5% and 47.2% and 47.6% (compound 10 µM). Further, the IC50 (curve of compound) is 7260 nM and 9620 nM and 8600 nM.
Regarding `COC1C(OC(N)=O)C(O)C(Oc2ccc3c(O)c(NC(=O)c4ccc(O)c(CC=C(C)C)c4)c(=O)oc3c2C)OC1(C)C` (stereo not given), the viability, T/C is 103% [middle of 12 runs] (compound 0.0316 µM); 102% [middle of 13 runs] (compound 0.316 µM); 105% [middle of 13 runs] (compound 1 µM); 107% [middle of 13 runs] (compound 3.16 µM); 108% [middle of 13 runs] (compound 10 µM). Moreover, the IC50 (compound alone, run of 10/31/2023) was > 10000 nM.
